Laboratory results from PMC2930046 (Archives of biochemistry and biophysics, 2010).
“And” between values parts separate entries of the source, which are not always exact repeats. Equal entries are not always repeated. Peptide text beside a SMILES is read from it. * marks the point of attachment. AMC = Cc1cc(=O)oc2cc(N*)ccc12; Cbz = O=C(OCc1ccccc1)*

How the values were obtained:
human 20S β5 = human 20S β5 (Homo sapiens, UniProt P28074); type: biochemical
cancer cells = conditions: cited from earlier work
[1] = tested on: fibroblasts and glial-derived cells; conditions: through inhibition of proteasome activity; cited from earlier work
proteasome β5 = conditions: read-out: IC50 for β5; cited from earlier work
Mtb20SOG [2] = biological target: T1, Mtb20SOG (Mycobacterium tuberculosis, UniProt P9WHT9); type: biochemical; conditions: retest of screening hits
Mtb20SOG [3] = biological target: T1, Mtb20SOG; experiment: Kinetics of inhibition of Mtb20SOG, progress curves of Suc-LLVY-AMC cleavage; type: biochemical
Mtb proteasome = conditions: cited from earlier work
mammalian proteasome = conditions: cited from earlier work

T1 sequence (P9WHT9 58-291): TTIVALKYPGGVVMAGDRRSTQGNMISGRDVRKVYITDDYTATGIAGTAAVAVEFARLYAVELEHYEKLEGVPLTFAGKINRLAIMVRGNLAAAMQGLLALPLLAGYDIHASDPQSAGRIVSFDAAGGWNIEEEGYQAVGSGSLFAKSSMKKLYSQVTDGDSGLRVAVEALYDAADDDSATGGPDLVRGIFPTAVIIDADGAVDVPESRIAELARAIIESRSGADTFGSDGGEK

SMILES: CCCCCCCCC[C@@H](O)CC(=O)N[C@@H](CC(N)=O)C(=O)N[C@@H](CCC(N)=O)C(=O)N[C@H](C=O)CC(C)C [compound 1, (R)-3-hydroxydodecanoyl-Asn-Gln-Leu-CHO]
- advantage on binding affinity of EI* over EI (ΔG = −RTlnK) (human 20S β5): 1.5 kcal/mol
- k5/k6 ratio (human 20S β5): 11
- Ki (human 20S β5; Ki, initial EI complex, corrected by equation 4, two-step mechanism): 11.6 nM and 11.5 nM
- distribution of enzyme into EI* (human 20S β5; from k5/k6 ratio): 91%
- cytotoxicity to cancer cells (cancer cells): cytotoxic to cancer cells
- release of nerve growth factor [1]: induce the release of nerve growth factor
- IC50 (proteasome β5): 9.6 nM
- inhibition of Mtb20SOG on retest with re-supplied compound (Mtb20SOG [2]): dose-dependent inhibition
- Ki (Mtb20SOG [3]; Ki calculated from koff/kon, koff/kon): 7.4 nM
- Ki (Mtb20SOG [3]; Ki, Morrison fit of vs/vo vs [1], corrected by (1+[S]/KM), one-step slow binding): 6.8 nM
- Ki (Mtb20SOG [3]; Kiapp, apparent, Morrison equation 3, uncorrected): 11.1 nM
- koff (Mtb20SOG [3]; read-out: k4 (koff)): 0.00096 s⁻¹
- kon (Mtb20SOG [3]; read-out: kon^app (slope of the fit, apparent)): 79500 M⁻¹ s⁻¹

SMILES: CC(=O)NC(CC(N)=O)C(=O)NC(CCC(N)=O)C(=O)NC(CC(C)C)C(=O)Nc1ccc2c(C)cc(=O)oc2c1 (stereo not drawn) [Ac-NQL-AMC] (Ac-Asn-Gln-Leu-{AMC}; configuration not given here)
- hydrolysis by the Mtb proteasome (Mtb proteasome): could not be hydrolyzed

SMILES: CC(C)C[C@@H](C=O)NC(=O)[C@H](CC(C)C)NC(=O)[C@H](CC(C)C)NC(=O)OCc1ccccc1 [Z-Leu-Leu-Leu-Cho] (Cbz-Leu-Leu-Leu-aldehyde)
- Ki (mammalian proteasome): 4 nM
